Reference: patent publication US12653830B2, “Substituted imidazoquinoxaline compounds and uses thereof” (Impact Therapeutics (Shanghai), Inc, priority 2019, dated 2026)
Like-named read-outs stand apart in the source and are kept apart here.

Legend:
[1] = tested on: human breast cancer cell MDA-MB-468; experiment: MTT proliferation assay, MDA-MB-468; type: cell-based; conditions: 7 days, single agent, read-out: IC50, inhibition of proliferation of MDA-MB-468
Procedure: Determination of the Inhibitory Effect of the Compound of Example 2 and its Analogues on the Proliferation of Human Breast Cancer Cell MDA-MB-468 Using MTT Assay
The human breast cancer cells MDA-MB-468 were cultured in RPMI 1640 medium with 10% FBS and used at 90% confluence. The MDA-IVB-468 cells were digested with trypsinase and centrifuged at 800 rpm for 5 minutes. The supernatant was discarded and the cell pellets were resuspended with fresh medium and counted. Cells were seeded to 96-well cell culture plates with appropriate cell density and incubated overnight at 37° C., 5% CO2. […] 5 μL of solutions of each concentration was added to 120 μL of medium (diluted by 25 times) and mixed by shaking. The culture medium of cells cultured overnight was discarded and replaced with 195 μL/well of fresh medium (RPMI 1640+5% FBS) and 5 μL/well of diluted medium containing the test compound of corresponding concentrations (the final concentration of DMSO was 1%), and the culture plate was then returned to 5% CO2 incubator at 37° C. for 7 days (on the fourth day, dressing was changed once and culture was continued). On the day of experiment, culture medium was discarded and replaced with 100 μL/well of fresh serum-free DMEM medium containing MTT (0.5 mg/mL), and the culture was continued. After 4 hours, medium was discarded and replaced with 100 μL/well of DMSO, the plates were shaken for 10 minutes in darkness and the absorbance was measured at the wavelengths of 552 and 693 nm using a multi-function plate reader. Graph Pad Prism 6.0 was used to analyze the data. The inhibitory effects of compounds on cell proliferation were plotted based on cell viability vs. the logarithm of compound concentration. Cell viability %=(ODcompound−ODbackground)/(ODDMSO−ODbackground)×100.
Table 4 summarizes the inhibitory effect data (IC50) of some compounds on the proliferation of human breast cancer cell MDA-MB-468.

[2] = tested on: human colon cancer cell SW620; experiment: MTT proliferation assay in combination with CPT-11, SW620; type: cell-based; conditions: medium containing 205 nM CPT-11, 5 days, read-out: IC50, inhibition of proliferation of SW620 combined with CPT-11
Procedure: Determination of the Inhibitory Effect of the Compound of Example 2 and its Analogues in Combination with CPT-11 on the Proliferation of Human Colon Cancer Cell SW620 Using MTT Assay
The human colon cancer cells SW620 were cultured in RPMI 1640 medium with 10% FBS and used at about 90% confluence for experiments. The SW620 cells were digested with trypsinase and centrifuged at 800 rpm for 5 minutes. The supernatant was discarded and the cell pellets were resuspended with fresh medium (RPMI 1640+10% FBS). The cells were seeded into 96-well cell culture plates with appropriate cell density and incubated at 37° C. overnight in a 5% CO2 incubator. […] The first concentration was 1 μM or 0.333 μM, the last concentration was DMSO negative control (0 μM). 5 μL of solutions of each concentration was added to 120 μL of medium (a 25 times dilution) and mixed by shaking. The cells were cultured overnight and the culture medium was replaced with 195 μL/well of fresh medium containing 205 nM CPT-11 and 5 μL/well of medium containing the test compound (the final concentration of DMSO was 1%). The culture plates were returned to incubator and cultured at 37° C., 5% CO2 for 5 days. At the day of experiment, medium was discarded and replaced with 100 μL of fresh serum-free DMEM medium containing MTT (0.5 mg/mL), and the culture was continued. 4 hours later, the medium was discarded and replaced with 100 μL/well of DMSO, the plate was shaken for 10 minutes in dark and the absorbance was measured at the wavelengths of 552 and 690 nm using a multi-function plate reader. Data were analyzed by Graph Pad Prism 6.0. The inhibitory effects of compounds on cell proliferation were plotted based on cell viability vs. the logarithm of compound concentration. Cell viability %=(ODcompound−ODbackground)/(ODDMSO−ODbackground)×100.
Table 3 summarizes the inhibitory effect data (IC50) of some compounds combined with CPT-11 on the proliferation of human colon cancer cell SW620.

[3] = target: T1, ATM kinase (Homo sapiens, UniProt Q13315); experiment: In vitro ATM kinase assay (Cisbio HTRF, p53 substrate); type: biochemical; conditions: 30 μM ATP; for inhibition at 0.0001 µM: Conc. 0.1 nM
T1 construct: purchased Eurofins 14-933
T1 sequence (Q13315 whole entry): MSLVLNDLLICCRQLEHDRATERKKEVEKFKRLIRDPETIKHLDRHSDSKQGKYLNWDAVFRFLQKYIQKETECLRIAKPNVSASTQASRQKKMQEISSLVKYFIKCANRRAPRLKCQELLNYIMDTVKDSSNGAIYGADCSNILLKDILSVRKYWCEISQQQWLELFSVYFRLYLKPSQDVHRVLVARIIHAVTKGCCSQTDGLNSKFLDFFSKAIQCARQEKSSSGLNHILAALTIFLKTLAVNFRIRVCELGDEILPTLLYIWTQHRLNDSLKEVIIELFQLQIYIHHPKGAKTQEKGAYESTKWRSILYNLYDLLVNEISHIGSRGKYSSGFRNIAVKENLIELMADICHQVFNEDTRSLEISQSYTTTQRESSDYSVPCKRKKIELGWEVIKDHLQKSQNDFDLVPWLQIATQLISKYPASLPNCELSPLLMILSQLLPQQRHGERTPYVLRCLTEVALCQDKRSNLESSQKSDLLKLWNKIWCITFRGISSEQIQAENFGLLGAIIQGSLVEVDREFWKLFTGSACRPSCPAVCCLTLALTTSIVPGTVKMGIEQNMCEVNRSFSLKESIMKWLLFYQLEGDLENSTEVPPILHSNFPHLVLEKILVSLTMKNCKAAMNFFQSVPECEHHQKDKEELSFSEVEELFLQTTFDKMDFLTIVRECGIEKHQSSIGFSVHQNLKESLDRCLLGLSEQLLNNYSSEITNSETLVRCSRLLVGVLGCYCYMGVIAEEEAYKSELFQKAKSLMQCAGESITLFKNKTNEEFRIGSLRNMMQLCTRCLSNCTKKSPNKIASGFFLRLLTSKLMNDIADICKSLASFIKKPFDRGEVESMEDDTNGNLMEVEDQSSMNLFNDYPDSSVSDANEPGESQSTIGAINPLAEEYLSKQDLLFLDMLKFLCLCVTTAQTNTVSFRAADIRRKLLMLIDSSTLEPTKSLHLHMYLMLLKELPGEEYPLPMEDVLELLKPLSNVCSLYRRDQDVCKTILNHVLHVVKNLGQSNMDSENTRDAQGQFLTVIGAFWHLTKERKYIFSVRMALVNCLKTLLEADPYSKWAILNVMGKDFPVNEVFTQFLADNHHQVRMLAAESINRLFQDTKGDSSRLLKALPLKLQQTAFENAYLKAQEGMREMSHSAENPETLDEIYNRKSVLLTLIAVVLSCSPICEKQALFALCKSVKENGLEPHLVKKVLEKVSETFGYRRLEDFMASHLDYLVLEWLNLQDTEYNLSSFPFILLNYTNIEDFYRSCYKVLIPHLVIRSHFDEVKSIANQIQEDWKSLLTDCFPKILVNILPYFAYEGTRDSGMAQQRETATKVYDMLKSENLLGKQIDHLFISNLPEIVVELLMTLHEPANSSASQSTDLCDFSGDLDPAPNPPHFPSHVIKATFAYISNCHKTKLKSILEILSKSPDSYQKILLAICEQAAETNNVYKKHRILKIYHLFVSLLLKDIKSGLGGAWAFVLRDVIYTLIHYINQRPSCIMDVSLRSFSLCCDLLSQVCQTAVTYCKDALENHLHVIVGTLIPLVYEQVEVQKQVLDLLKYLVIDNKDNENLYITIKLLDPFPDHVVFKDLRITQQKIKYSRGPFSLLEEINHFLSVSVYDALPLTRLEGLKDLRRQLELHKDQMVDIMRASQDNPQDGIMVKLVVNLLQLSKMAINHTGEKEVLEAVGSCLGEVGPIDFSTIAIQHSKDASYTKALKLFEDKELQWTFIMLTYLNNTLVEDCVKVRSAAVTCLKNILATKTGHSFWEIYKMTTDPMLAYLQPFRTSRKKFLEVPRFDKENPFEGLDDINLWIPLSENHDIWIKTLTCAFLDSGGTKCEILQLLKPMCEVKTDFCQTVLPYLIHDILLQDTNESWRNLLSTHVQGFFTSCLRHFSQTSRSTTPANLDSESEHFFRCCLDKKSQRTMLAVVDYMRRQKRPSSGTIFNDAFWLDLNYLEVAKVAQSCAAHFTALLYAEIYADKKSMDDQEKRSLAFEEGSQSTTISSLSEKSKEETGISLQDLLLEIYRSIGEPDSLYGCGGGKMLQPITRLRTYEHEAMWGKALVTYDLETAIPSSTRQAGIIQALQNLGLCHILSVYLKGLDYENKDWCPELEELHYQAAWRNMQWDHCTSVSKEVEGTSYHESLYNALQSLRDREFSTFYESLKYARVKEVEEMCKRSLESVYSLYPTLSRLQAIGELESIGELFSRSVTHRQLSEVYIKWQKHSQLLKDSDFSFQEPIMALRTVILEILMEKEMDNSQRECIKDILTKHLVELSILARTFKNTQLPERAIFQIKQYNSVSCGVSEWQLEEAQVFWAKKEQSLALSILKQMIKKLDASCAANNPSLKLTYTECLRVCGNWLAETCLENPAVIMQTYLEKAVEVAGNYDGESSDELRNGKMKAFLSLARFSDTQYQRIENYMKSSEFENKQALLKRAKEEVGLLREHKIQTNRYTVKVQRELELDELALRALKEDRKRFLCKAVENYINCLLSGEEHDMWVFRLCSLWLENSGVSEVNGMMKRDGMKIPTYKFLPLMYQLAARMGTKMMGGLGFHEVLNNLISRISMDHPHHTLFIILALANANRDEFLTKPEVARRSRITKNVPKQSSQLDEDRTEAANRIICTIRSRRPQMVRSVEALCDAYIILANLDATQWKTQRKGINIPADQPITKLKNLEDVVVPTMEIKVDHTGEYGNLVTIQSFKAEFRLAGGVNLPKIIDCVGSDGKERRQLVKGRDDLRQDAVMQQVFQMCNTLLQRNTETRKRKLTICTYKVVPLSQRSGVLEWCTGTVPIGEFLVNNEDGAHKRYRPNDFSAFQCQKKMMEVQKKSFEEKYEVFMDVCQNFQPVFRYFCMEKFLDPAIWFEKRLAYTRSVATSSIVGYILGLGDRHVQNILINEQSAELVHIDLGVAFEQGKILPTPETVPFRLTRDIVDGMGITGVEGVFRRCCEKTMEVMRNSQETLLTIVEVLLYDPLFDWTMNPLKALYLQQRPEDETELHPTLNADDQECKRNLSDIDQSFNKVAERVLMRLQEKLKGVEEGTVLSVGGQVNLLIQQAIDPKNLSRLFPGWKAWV
Procedure: Determination of the Inhibitory Effect In Vitro of the Compound of Example 2 and its Analogues on ATM Using In Vitro ATM Kinase Assay
ATM enzymatic activity was measured using Cisbio's HTRF reagent in a 384-well plate (Greiner, #784075). […] The mixtures were centrifuged at 1000 rpm for 1 minute, and reacted in dark for 30 minutes at room temperature. Then, 5 μL of EDTA termination solution (250 mm) was added to terminate the reaction. After 5 μL of detection mixture (Anti-phospho-p53 (ser15)-K (Cisbio, #61P08KAE, 0.084 ng/μL) and Anti-GST-d2 (Cisbio, #61GSTDLA, 5.00 ng/μL)) was finally added to each well, the mixtures were cultured at room temperature over night, and the fluorescence values at 665 nm and 615 nm were measured on Envision 2104. The final concentration of each reagent of the experiment was as follows: 12.5 mM HEPES (pH8.0), 0.5% glycerol, 0.005% Brij-35, 0.625 mM DTT, 0.0125% BSA, 15 nM p53, 0.25 ng/μL ATM, 30 μM ATP, 2.5 mM Mg(AcO)2, 2.5 mM MnCl2, 62.5 mM EDTA, 0.021 ng/μL Anti-phospho-p53, 1.25 ng/μL Anti-GST-d2.
Relative fluorescence ratio was calculated: Ratio665 nm/615 nm−Ratiobackground, and inhibition rate %=(1−(relative fluorescence ratio of test compound well−relative fluorescence ratio of positive control well)/(relative fluorescence ratio of negative control well−relative fluorescence ratio of positive control well))×100 was calculated. Data were analyzed using GraphPad Prism6.0 and fitted using the curve equation: Y=Bottom+(Top−Bottom)/(1+10^((Log IC50−X)*HillSlope)), and IC50 values were calculated.

[4] = Homo sapiens, MDA-MB-468, 168 h
[5] = Conc. 1 nM, read-out: Inh % (inhibitory effect on ATM kinase activity)
[6] = Conc. 10 nM, read-out: Inh % (inhibitory effect on ATM kinase activity)
[7] = read-out: Inh % (inhibitory effect on ATM kinase activity)

For CN(C)CCCOc1ccc(-c2ccc3ncc4c(c3c2)n(C2CCOCC2)c(=O)n4C)cn1 [AZD0156, reference compound], the IC50 [1] was 9.87 nM, the IC50 [2] was 9.8 nM and the “Inh % (inhibitory effect on ATM kinase activity)” value ([3]; Conc. 1 nM) was 90%. The “Inh % (inhibitory effect on ATM kinase activity)” value ([3]; Conc. 10 nM) was 95% and the “Inh % (inhibitory effect on ATM kinase activity)” value ([3]; Conc. 100 nM) was 100%.

For CN(C)CCCOc1ccc(-c2ccc3ncc4cnc(C5CCOCC5)n4c3c2)cc1 [Example 1, N,N-dimethyl-3-(4-(1-(tetrahydro-2H-pyran-4-yl)imidazo[1,5-a]quinoxalin-8-yl)phenoxy)propan-1-amine], the IC50 [1, 4] was 103 nM, the IC50 [2] was 123 nM and the inhibition at 0.001 µM [3, 5] was 25%. For the same molecule, the inhibition at 0.01 µM [3, 6] was 71% and the inhibition at 0.1 µM ([3]; Conc. 100 nM, read-out: Inh % (inhibitory effect on ATM kinase activity)) was 96%.

Cc1nc(C2CCOCC2)n2c1cnc1ccc(-c3ccc(OCCCN(C)C)nc3)cc12 [Example 2, N,N-dimethyl-3-((5-(3-methyl-1-(tetrahydro-2H-pyran-4-yl)imidazo[1,5-a]quinoxalin-8-yl)pyridin-2-yl)oxy)propan-1-amine] showed an IC50 [1, 4] of 18.8 nM, an IC50 [2] of 19.2 nM and an inhibition at 0.0001 µM [3, 7] of 45%. The inhibition at 0.001 µM [3, 5] was 59% and the inhibition at 0.01 µM [3, 6] was 96%.

In the case of Cc1nc(C2CCOCC2)n2c1cnc1ccc(-c3ccc(OCCCN(C)C)cc3)cc12 [Example 3, N,N-dimethyl-3-(4-(3-methyl-1-(tetrahydro-2H-pyran-4-yl)imidazo[1,5-a]quinoxalin-8-yl)phenoxy)propan-1-amine], the IC50 [1, 4] is reported as 29.1 nM, the IC50 [2] is reported as 40.2 nM and the inhibition at 0.01 µM [3, 6] is reported as 98%.

Molecule Cc1nc(C2CCOCC2)n2c1cnc1ccc(-c3ccc(OCCCN(C)C)c(F)c3)cc12 [Example 4, N,N-dimethyl-3-(2-fluoro-4-(3-methyl-1-(tetrahydro-2H-pyran-4-yl)imidazo[1,5-a]quinoxalin-8-yl)phenoxy)propan-1-amine] has an IC50 [1, 4] of 38.9 nM, an IC50 [2] of 41.1 nM and an inhibition at 0.01 µM [3, 6] of 97%.

Work on Cc1nc(C2CCOCC2)n2c1cnc1ccc(-c3ccc(OCCCN(C)C)c(C(F)(F)F)c3)cc12 [Example 5, N,N-dimethyl-3-(4-(3-methyl-1-(tetrahydro-2H-pyran-4-yl)imidazo[1,5-a]quinoxalin-8-yl)-2-(trifluoromethyl)phenoxy)propan-1-amine] yielded an IC50 [1, 4] of 21.9 nM, an IC50 [2] of 19.5 nM and an inhibition at 0.0001 µM [3, 7] of 47%. It also gave an inhibition at 0.001 µM [3, 5] of 97% and an inhibition at 0.01 µM [3, 6] of 99%.

For Cc1nc(C2CCOCC2)n2c1cnc1ccc(-c3ccc(N4CCC(N(C)C)CC4)c(F)c3)cc12 [Example 6, N,N-dimethyl-1-(2-fluoro-4-(3-methyl-1-(tetrahydro-2H-pyran-4-yl)imidazo[1,5-a]quinoxalin-8-yl)phenyl)piperidin-4-amine], the IC50 [1, 4] was 11.6 nM, the IC50 [2] was 12.6 nM and the inhibition at 0.0001 µM [3, 7] was 33%. The inhibition at 0.001 µM [3, 5] was 93% and the inhibition at 0.01 µM [3, 6] was 99%.

Cc1nc(N2C[C@@H](C)O[C@@H](C)C2)n2c1cnc1ccc(-c3ccc(OCCc4c[nH]cn4)nc3)cc12 [Example 35, (2S,6R)-4-(8-(6-(2-(1H-imidazol-4-yl)ethoxy)pyridin-3-yl)-3-methylimidazo[1,5-a]quinoxalin-1-yl)-2,6-dimethylmorpholine] gave an IC50 [1, 4] of 419 nM and an IC50 [2] of 564 nM.

CC(C)c1nc(N2C[C@@H](C)O[C@@H](C)C2)n2c1cnc1ccc(-c3ccc(OCCCN(C)C)nc3)cc12 [Example 42, 3-((5-(1-((2S,6R)-2,6-dimethylmorpholino)-3-isopropylimidazo[1,5-a]quinoxalin-8-yl)pyridin-2-yl)oxy)-N,N-dimethylpropan-1-amine] was tested, and the IC50 [1, 4] was 533 nM and the IC50 [2] was 852 nM.

C[C@@H]1CN(c2ncc3cnc4ccc(-c5ccc(N6CCC(N(C)C)CC6)nc5)cc4n23)C[C@H](C)O1 [Example 45, 1-(5-(1-((2S,6R)-2,6-dimethylmorpholino)imidazo[1,5-a]quinoxalin-8-yl)pyridin-2-yl)-N,N-dimethylpiperidin-4-amine] was tested, and the IC50 [1, 4] was 18.8 nM and the IC50 [2] was 20.9 nM.

Cc1nc(N2C[C@@H](C)O[C@@H](C)C2)n2c1cnc1ccc(-c3ccc(N(C)CCCN(C)C)nc3)cc12 [Example 47, N^1-(5-(1-((2S,6R)-2,6-dimethylmorpholino)-3-methylimidazo[1,5-a]quinoxalin-8-yl)pyridin-2-yl)-N^1,N^3,N^3-trimethylpropane-1,3-diamine] was tested, and the IC50 [1, 4] was 126 nM and the IC50 [2] was 17.9 nM.

Molecule Cc1nc(N2C[C@@H](C)O[C@@H](C)C2)n2c1cnc1ccc(-c3ccc(N4CCC(N5CCC5)CC4)nc3)cc12 [Example 52, (2S,6R)-4-(8-(6-(4-(azetidin-1-yl)piperidin-1-yl)pyridin-3-yl)-3-methylimidazo[1,5-a]quinoxalin-1-yl)-2,6-dimethylmorpholine] has an IC50 [1, 4] of 6.1 nM and an IC50 [2] of 5.5 nM.

With Cc1nc(N2C[C@@H](C)O[C@@H](C)C2)n2c1cnc1ccc(-c3ccc(CCN4CCN(C)CC4)nc3)cc12 [Example 60, (2S,6R)-2,6-dimethyl-4-(3-methyl-8-(6-(2-(4-methylpiperazin-1-yl)ethyl)pyridin-3-yl)imidazo[1,5-a]quinoxalin-1-yl)morpholine] the IC50 [1, 4] was 832 nM and the IC50 [2] was > 1000 nM.

In the case of Cc1nc(N2C[C@@H](C)O[C@@H](C)C2)n2c1cnc1ccc(-c3ccc(OCCCN(C)C)c(F)c3)cc12 [Example 61, 3-(4-(1-((2S,6R)-2,6-dimethylmorpholino)-3-methylimidazo[1,5-a]quinoxalin-8-yl)-2-fluorophenoxy)-N,N-dimethylpropan-1-amine], the IC50 [1, 4] is reported as 20.8 nM and the IC50 [2] is reported as 21.7 nM.

In the case of Cc1nc(N2C[C@@H](C)O[C@@H](C)C2)n2c1cnc1ccc(-c3ccc(OCCCN(C)C)c(Cl)c3)cc12 [Example 62, 3-(2-chloro-4-(1-((2S,6R)-2,6-dimethylmorpholino)-3-methylimidazo[1,5-a]quinoxalin-8-yl)phenoxy)-N,N-dimethylpropan-1-amine], the IC50 [1, 4] is reported as 34 nM and the IC50 [2] is reported as 43 nM.
